Reference: patent publication US20250044279A1, “CYTOTOXICITY ASSAY FOR DETECTING CELLULAR DAMAGE” (priority 2023, published 2025)

Assays:
[1] = test system: C. albicans (SC5314); test: Infection of TR146-Nluc epithelial cells with C. albicans in the presence of antifungals; damage read out by Nluc and LDH in supernatant; format: cell-based; conditions: sub-MIC levels, supernatant 24 hours after infection; for protection of TR146-Nluc from C. albicans-induced cell damage, LDH assay: LDH readout, protective effect not reliably detected (FIG. 3D); for protection of TR146-Nluc from C. albicans-induced cell damage, Nluc assay: Nluc readout (FIG. 3D)
Experimental: (§1) In order to measure damage from cells seeded in 96-well plates, plates were centrifuged at 250×g for 10 minutes. Where indicated, 100 μl of supernatant was collected and stored at −20° C. for assaying on another day in the same week. For the luciferase assays, 5 μl supernatant was diluted with 95 μl PBS in white flat-opaque-bottomed 96-well plates (ThermoFisher). Then, 100 μl of 10 μM coelenterazine (in PBS) was added and luciferase activity measured immediately using a Tecan infinite M200 luminescence reader, with integration time of 100 ms and OD2 compensation. The OD2 neutral density filter attenuates high level light by a factor of 100.
The LDH cytotoxicity assay was performed according to instructions in the Roche Cytotoxicity Detection Kit with minor modifications. Briefly, 10 μl supernatant was diluted with 90 μl PBS in transparent-flat-bottomed 96-well plates, 100 μl of kit reagent mixture was added to each well, the plates were incubated in the dark for 15-20 minutes at room temperatures, and absorbance was measured with a Tecan absorbance reader at 492 nm (reference at 600 nm).
Infection of epithelial cells with Candida spp. strains Overnight cultures of Candida spp. strains in YPD, 1% peptone were diluted, washed in PBS, and counted using Neubauer counting chambers. The medium of confluent epithelial cells was replaced with a suspension of […] Candida spp. (MOI 1) in the appropriate cell culture medium (without FBS). The cells were incubated at 37° C. and 5% CO2 for 24 hours.
Stock solutions of the antifungal drugs, fluconazole (10 mg/ml) and voriconazole (10 mg/ml) were prepared in DMSO and stored at −20° C. A two-fold dilution series was prepared in DMEM/F12 cell culture medium for fluconazole (8-0.25 μg/ml) and voriconazole ([…]). Diluted drugs were transferred to TR146-Nluc cells seeded 48 hours prior, and infected with C. albicans (SC5314), as described above. Supernatant was collected 24 hours after infection to measure damage by LDH and Nluc.

[2] = target: T1, Nluc (Oplophorus gracilirostris, UniProt Q9GV45, A31E/A60N/A81I/F95D/I117V/K70R/L54V/L99Q/M102K/N193R/P142E/Q151K/Q38R/Q45L/V71I/Y165I); test: Effect of pyruvate on Nluc enzyme activity in TR146-Nluc cell lysate; format: biochemical; conditions: 16-0.5 mM dilution series (FIG. 4C)
T1 construct: expressed in transfected cells; host or cells: TR146 human oral epithelial cells, lentivirally transduced with pSEW-NanoLuc-IRES-PuroR (Nluc gene amplified from Addgene plasmid #67178), lysed in 1% Triton X-100 in PBS
T1 sequence (Q9GV45 other isoform, or with tags, fused parts or gaps with the stated changes): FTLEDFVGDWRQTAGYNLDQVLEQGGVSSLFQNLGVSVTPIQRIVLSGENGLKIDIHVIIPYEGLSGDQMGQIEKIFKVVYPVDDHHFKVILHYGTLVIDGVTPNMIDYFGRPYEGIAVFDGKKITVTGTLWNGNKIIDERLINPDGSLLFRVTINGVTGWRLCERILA
Experimental: as §1
TR14-Nluc cells were detached with Accutase and resuspended in 5 ml PBS. Cells were counted and ≈1×10^4 cells/ml were resuspended in lysing buffer (1% Triton X-100 in PBS, pH 7.4).
To examine the effects of pyruvate on activity of LDH, a 2-fold dilution series for sodium pyruvate and lactate (16-0.5 mM) was prepared in lysis buffer, the lysate was incubated for 10 min at 37° C. and centrifuged at 10,000×g. The supernatant was collected to test LDH and luciferase enzyme activity.

C[C@@H](c1ncncc1F)[C@](O)(Cn1cncn1)c1ccc(F)cc1F [voriconazole]
protection of TR146-Nluc from C. albicans-induced cell damage, LDH assay [1]: not with LDH
protection of TR146-Nluc from C. albicans-induced cell damage, Nluc assay [1]: protective effect

OC(Cn1cncn1)(Cn1cncn1)c1ccc(F)cc1F [fluconazole]
protection of TR146-Nluc from C. albicans-induced cell damage, LDH assay [1]: not with LDH
protection of TR146-Nluc from C. albicans-induced cell damage, Nluc assay [1]: protective effect

CC(=O)C(=O)[O-].[Na+] [pyruvate, sodium pyruvate]
effect on Nluc enzyme activity [2]: no discernible effect
